# From patent US20030207819A1, “Compositions and methods for treating inflammatory connective tissue diseases” (priority 2002, published 2003)
# Entries after “also recorded” stand apart in the source; their conditions may differ.
# How the values were obtained:
# Format in all cases: in vivo, human
# [1] = tested on: patient with undifferentiated connective tissue disease; experiment: Example 1: clinical observation of patient on clarithromycin; settings: person
# Source text: We elected to continue them on this antibiotic. […] Because the patient was on Lodine (NSAID) at the same time, we elected to see if they could stop the Lodine and still have relief of symptoms.
# [2] = tested on: patient with undifferentiated connective tissue disease; experiment: Example 2: clarithromycin re-challenge of Example 1 patient, symptoms and laboratory assessments
# Method: (§1) Subsequent to the observations made in Example 1, the patient was re-challenged with clarithromycin, and re-evaluated as to symptomatic efficiency. In parallel with clinical observations, laboratory assessments including erythrocyte sedimentation rate, C-reactive protein, and serum interleukins 1 and 6 were measured. The laboratory results are illustrated in Table 1.
# On Jul. 29, 2002 the clarithromycin treatment of the patient from Example 1 was discontinued (Table 1). Their additional medications included: ZESTRIL® (Astra Zenica) at 1 mg/t.i.d., CALTRATE® with Vitamin D (Wyeth)/b.i.d., UNITHROID™ (Jerome Stevens Pharmaceuticals, Inc.) at 0.05 mg/day, TROZODONE® (Watson Laboratories, Inc.) at 50 mg/h.s., TYLENOL® (McNeil Consumer Brands) at 1 gm/p.r.n., multi-vitamins/p.r.n., iron tablets, quinine at 260 mg, and non-specific herbs. […] When the patient was observed on Aug. […] The symptoms were sufficiently severe that they asked to be restarted on clarithromycin. When observed on Aug. 15, 2002, they stated they had become “100% better” by Aug. 11, 2002. The patient was continued on clarithromycin at 500 mg b.i.d. and observed serially at weekly intervals on Aug. 22, 2002, Aug. 27, 2002, and Sep. 5, 2002.
# These findings are similar to their clinical history over the past several years with respect to clarithromycin therapy and response of connective tissue symptoms.
# [3] = tested on: patient with chondrocalcinosis leading to pseudorheumatoid pseudogout syndrome; experiment: Example 3: clinical observation of patient on clarithromycin; settings: person; clarithromycin 500 mg b.i.d. begun two weeks prior for pneumonia
# Method: A patient has severe ditTuse generalized chondrocalcinosis leading to pseudorheumatoid pseudogout syndrome. Given the intensity of their chronic synovitis and the lack of response to steroids as well as NSAIDs, they were put on methotrexate, 10 mg/week and infliximab ([…]®, Centocor, Inc.), after which they did satisfactorily. The patient had bilateral total knee replacements and, subsequently was taken off the infliximab when they developed a knee infection postoperatively. The patient continued to have diffuse aches and pains and joint swelling. When seen in the office on Mar. 12, 2002, they spontaneously asked whether the medicine they were taking for their pneumonia could have an effect on their arthritis. Apparently they had begun clarithromycin 500 mg b.i.d. for their pneumonia two weeks prior and said they had “never felt as well” with respect to their joint symptoms as they had during the subsequent several days. They continued to feel much improved and asked if they could stay on the antibiotic.
# [4] = tested on: patient with chondrocalcinosis leading to pseudorheumatoid pseudogout syndrome; experiment: Example 4: clarithromycin re-challenge of Example 3 patient, symptoms and laboratory assessments
# Method: as §1, with “3,” for “1,”, “C-reactive 1 5” for “C-reactive”, “2.” for “1.”
# On Jun. 15, 2002 the patient from Example 3 underwent a right pneumonectomy for treatment of recurrent lung cancer. During that hospitalization, clarithromycin was discontinued.
# The patient underwent formal re-challenge with clarithromycin on Aug. 19, 2002 (Table 2). At that time their medications included ibuprofen at 400 mg/day, acetaminophen at 500 mg/as needed, prednisone at 5 mg/daily, CELEXA™ (Forest Pharmaceuticals, Inc.) at […], REMURON® (Organon Inc.) at 7.5 mg/h.s., DURICEF® (Bristol) at 500 mg b.i.d., TIMOPTIC® eye drops (Merck & Co.), and multi-vitamins. […] Clarithromycin at 500 mg b.i.d. was restarted on Aug. 20, 2002. When seen on Aug. […] 19, 2002. […] 28, 2002. On Sep. […] Ibuprofen was decreased to […] on Sep. 5, 2002. On Sep. […] On Sep.
# [5] = Aug. 8, 2002, 10 days off clarithromycin
# [6] = Aug. 15, 2002, clarithromycin restarted
# [7] = Aug. 22, 2002, on clarithromycin
# [8] = Aug. 27, 2002, on clarithromycin
# [9] = Jul. 29, 2002, on clarithromycin 500 mg BID
# [10] = Sep. 5, 2002, on clarithromycin
# [11] = Oct. 8, 2002, off clarithromycin
# [12] = Sep. 4, 2002, on clarithromycin
# [13] = Sep. 9, 2002, on clarithromycin
# [14] = Sep. 23, 2002, off clarithromycin
smiles,measurement,setting,value
"CC[C@H]1OC(=O)[C@H](C)[C@@H](O[C@H]2C[C@@](C)(OC)[C@@H](O)[C@H](C)O2)[C@H](C)[C@@H](O[C@@H]2O[C@H](C)C[C@H](N(C)C)[C@H]2O)[C@](C)(OC)C[C@@H](C)C(=O)[C@H](C)[C@@H](O)[C@]1(C)O [clarithromycin, 6-O-methylerythromycin]",Symptoms,[1]; back on 500 mg/bid after 250 mg/bid,improved essentially completely
same,symptoms with respect to connective tissue changes,[1]; clarithromycin 500 mg b.i.d. begun December 1998,significantly improved
same,Symptoms,[1]; dose reduced to 250 mg/bid,symptoms returned
same,undifferentiated connective disease status,"[1]; last seen Feb. 12, 2002, continued clarithromycin",under control
same,joint symptoms,[1]; reduced dose of 750 mg/day,"increased swelling of the hands, painful wrists, knee swelling and hand stiffness"
same,ESR,[2]; [5],25 mm/hr
same,IL-6,[2]; [5],2.1 pg/mL
same,Symptoms,[2]; [5],"generalized joint pain, associated with swelling"
same,Symptoms,"[2]; Aug. 15, 2002, clarithromycin 500 mg b.i.d. restarted, better on Aug. 11, 2002",100% better
same,CPR,[2]; [6],<0.3 mg/dL
same,ESR,[2]; [6],21 mm/hr
same,IL-6,[2]; [6],0.9 pg/mL
same,CPR,[2]; [7],<0.3 mg/dL
same,ESR,[2]; [7],34 mm/hr
same,IL-6,[2]; [7],0.7 pg/mL
same,Symptoms,"[2]; Aug. 22, 2002, on clarithromycin 500 mg b.i.d.",Doing well
same,CPR,[2]; [8],<0.3 mg/dL
same,ESR,[2]; [8],21 mm/hr
same,IL-6,[2]; [8],1.1 pg/mL
same,Symptoms,"[2]; Aug. 27, 2002, on clarithromycin 500 mg b.i.d.",Doing well
same,CPR,[2]; [9],<0.3 mg/dL
same,ESR,[2]; [9],29 mm/hr
same,Symptoms,"[2]; Jul. 29, 2002, on clarithromycin 500 mg po BID, discontinued at this visit",Good Control
same,CPR,[2]; [10],<0.3 mg/dL
same,ESR,[2]; [10],34 mm/hr
same,IL-6,[2]; [10],1 pg/mL
same,Symptoms,"[2]; Sep. 5, 2002, on clarithromycin 500 mg b.i.d.",Doing well
same,"change in ESR, CRP, Interleukin-1, or Interleukin-6","[2]; over the re-challenge Jul. 29 to Sep. 5, 2002",no significant change
same,joint symptoms,[3],much improved
same,CPR,[4]; [8],0.74 mg/dL
same,ESR,[4]; [8],18 mm/hr
same,IL-6,[4]; [8],6.8 pg/mL
same,Symptoms,"[4]; Aug. 27, 2002, on clarithromycin 500 mg BID since Aug. 20, 2002, compared to baseline Aug. 19, 2002",had not observed improvement; also recorded: No change
same,CPR,[4]; [11],0.77 mg/dL
same,ESR,[4]; [11],10 mm/hr
same,IL-6,[4]; [11],1.8 pg/mL
same,Symptoms,"[4]; Oct. 8, 2002, off clarithromycin, prednisone 5 mg QD",continued active
same,CPR,[4]; [12],0.78 mg/dL
same,ESR,[4]; [12],10 mm/hr
same,IL-6,[4]; [12],2.5 pg/mL
same,Symptoms,"[4]; Sep. 4, 2002, on clarithromycin, ibuprofen increased to 800 mg/day on Aug. 28, 2002",40% better
same,CPR,[4]; [13],1.06 mg/dL
same,ESR,[4]; [13],11 mm/hr
same,IL-6,[4]; [13],4.5 pg/mL
same,Symptoms,"[4]; Sep. 9, 2002, on clarithromycin, discontinued at this visit, ibuprofen 600 mg/day",No change
same,Symptoms,"[4]; Sep. 16, 2002, off clarithromycin, ibuprofen 400 mg/day",Worse
same,IL-6,"[4]; Sep. 16, 2002, one week following clarithromycin discontinuation, baseline 2.2",33.1 pg/mL
same,ESR,[4]; [14],37 mm/hr
same,IL-6,[4]; [14],6.4 pg/mL
same,Symptoms,[4]; [14],continued worsening; also recorded: Worse
same,CPR,"[4]; Sep. 23, 2002, off clarithromycin, baseline 0.85",3.51 mg/dL
same,joints,[4]; clarithromycin begun again as antimicrobial therapy after pneumonectomy,once again improved
same,arthritis symptoms,"[4]; five to six days following discontinuation of clarithromycin, hospitalization June 2002",significantly worse
same,ESR,"[4]; off clarithromycin, increase from 11 mm at baseline, date not given in the text",37 mm
same,change in IL-1,"[4]; over the re-challenge Aug. 19 to Oct. 8, 2002",No significant change
